EP4707280A1, “1,4-CINEOLE DERIVATIVE AND INTERMEDIATE THEREOF, HERBICIDE CONTAINING SAID DERIVATIVE AS ACTIVE INGREDIENT, METHOD FOR USING HERBICIDE, AND METHOD FOR PREPARING AGROCHEMICAL COMPOSITION” (HOKKO CHEMICAL INDUSTRY CO., LTD., priority 2023, dated 2024)

How the values were obtained:
Assay type in all cases: in vivo
Monochoria vaginalis [1] = experiment: Test Example 1: herbicidal effect test by soil application in paddy rice; conditions: Pontederia vaginalis, soil, 336 h; 120 g active ingredient per 10 ares; applied immediately after sowing, flooded pots; 14 days after application; read-out: weed inhibition rate
Summary of the method: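 Inhibition rate (%) read 14 days after treatment, duplicate pots. Water-diluted emulsifiable concentrate was applied by dropper at 120 g active ingredient/10 ares right after sowing. Seeds (30 per species, 0–1 cm deep) went into puddled paddy soil kept flooded at about 3 cm in a greenhouse.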

Monochoria vaginalis [2] = experiment: Test Example 2: herbicidal effect test by application during growth period of paddy rice; conditions: Pontederia vaginalis; 120 g per 10 ares; applied seven days after sowing, flooded pots; 14 days after application; read-out: weed inhibition rate
Summary of the method: (§1)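 Weeds sown into puddled, flooded paddy soil received a post-emergence water application of emulsifiable concentrate at 120 g active ingredient per 10 ares, seven days after sowing. Herbicidal effect was rated 14 days later as inhibition (%).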

[3] = system: Echinochloa crus-galli var. formosensis; experiment: as above; conditions: Echinochloa crus-galli; 120 g per 10 ares; applied seven days after sowing, flooded pots; 14 days after application; read-out: weed inhibition rate
Summary of the method: as §1

Scirpus juncoides = experiment: as above; conditions: Schoenoplectiella juncoides; 120 g per 10 ares; applied seven days after sowing, flooded pots; 14 days after application; read-out: weed inhibition rate
Summary of the method: as §1

[4] = system: Echinochloa crus-galli var. formosensis; experiment: Test Example 5: herbicidal effect test by soil application in paddy rice (low dose); conditions: Echinochloa crus-galli, soil, 336 h; 7.5 g per 10 ares; applied immediately after sowing, flooded pots; 14 days after application; read-out: weed inhibition rate
Summary of the method: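 Pots of puddled, fertilized paddy soil receive 30 seeds per species at 0–1 cm depth and are flooded to about 3 cm. The diluted emulsifiable concentrate is then dropped onto the water, delivering 7.5 g active ingredient per 10 ares. Greenhouse grown; herbicidal effect scored 14 days later, two replicates.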

Echinochloa crus-galli [5] = experiment: Test Example 7: herbicidal effect test by soil application in upland field (low dose); conditions: Echinochloa crus-galli, 7.5 g per 10 ares, sprayed one day after sowing, 14 days after application, read-out: weed inhibition rate
Summary of the method: (§2)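 Low-dose soil treatment at 7.5 g a.i. per 10 a, applied as a diluted emulsifiable concentrate sprayed onto the soil surface one day after sowing in upland alluvial loam. Duplicate pots; percent weed inhibition is read 14 days after application.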

Digitaria ciliaris [6] = experiment: as above; conditions: Digitaria ciliaris, 7.5 g per 10 ares, sprayed one day after sowing, 14 days after application, read-out: weed inhibition rate
Summary of the method: as §2

Echinochloa crus-galli [7] = experiment: Test Example 8: herbicidal effect test by stem and leaf treatment in upland field (low dose); conditions: Echinochloa crus-galli; 7.5 g per 10 ares; sprayed seven days after sowing, upland soil; 14 days after application; read-out: weed inhibition rate
Digitaria ciliaris [8] = experiment: as above; conditions: Digitaria ciliaris; 7.5 g per 10 ares; sprayed seven days after sowing, upland soil; 14 days after application; read-out: weed inhibition rate
[9] = system: Echinochloa crus-galli var. formosensis; experiment: Test Example 6: herbicidal effect test by application during growth period of paddy rice (low dose); conditions: Echinochloa crus-galli; 7.5 g per 10 ares; applied seven days after sowing, flooded pots; 14 days after application; read-out: weed inhibition rate
Summary of the method: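 Emulsifiable concentrate, water-diluted, dropped onto flooded paddy pots 7 days post-sowing at 7.5 g active ingredient/10 a. Greenhouse-grown weeds; percent inhibition scored at day 14 after treatment.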

Echinochloa crus-galli [10] = experiment: Test Example 4: herbicidal effect test by stem and leaf treatment in upland field; conditions: Echinochloa crus-galli; 120 g per 10 ares; sprayed seven days after sowing, upland soil; 14 days after application; read-out: weed inhibition rate

CC(C)[C@]12C[C@@H](OCc3ccccc3F)[C@](C)(CC1OCC1CC1)O2 (mixture of isomers) [1-921, (1S,2R,4R,SR)-5-(cyclopropylmethoxy)-2-[(2-fluorophenyl)methoxy]-1-methyl-4-isopropyl-7-oxabicyclo[2.2.1]heptane]
≥ 80%: pest or weed control at 1200 g/ha (Monochoria vaginalis [1]) | inhibition at 1200 g/ha (Monochoria vaginalis [2]) | inhibition at 1200 g/ha [3] | inhibition at 1200 g/ha (Scirpus juncoides) | inhibition at 75 g/ha [4] | inhibition at 75 g/ha (Echinochloa crus-galli [5]) | inhibition at 75 g/ha (Digitaria ciliaris [6]) | inhibition at 75 g/ha (Echinochloa crus-galli [7]) | inhibition at 75 g/ha (Digitaria ciliaris [8]) | inhibition at 75 g/ha [9] | inhibition at 1200 g/ha (Echinochloa crus-galli [10])

CC(C)[C@]12C=C[C@](C)(O1)C(OCc1ccccc1F)C2 (mixture of isomers) [3-5, (1R,4S,SR)-5-[(2-fluorophenyl)methoxy]-4-methyl-1-isopropyl-7-oxabicyclo[2.2.1]hept-2-ene]
≥ 80%: pest or weed control at 1200 g/ha (Monochoria vaginalis [1]) | inhibition at 1200 g/ha (Monochoria vaginalis [2]) | inhibition at 1200 g/ha [3] | inhibition at 1200 g/ha (Scirpus juncoides) | inhibition at 75 g/ha [4] | inhibition at 75 g/ha (Echinochloa crus-galli [5]) | inhibition at 75 g/ha (Digitaria ciliaris [6]) | inhibition at 75 g/ha (Echinochloa crus-galli [7]) | inhibition at 75 g/ha (Digitaria ciliaris [8]) | inhibition at 75 g/ha [9] | inhibition at 1200 g/ha (Echinochloa crus-galli [10])

Cc1ccccc1CO[C@@H]1C[C@]2(C(C)C)O[C@@]1(C)C[C@@H]2F [1-2, (1R,2S,4S,5R)-2-fluoro-1-isopropyl-4-methyl-5-((2-methylbenzyl)oxy)-7-oxabicyclo[2.2.1]heptane]
≥ 80%: pest or weed control at 1200 g/ha (Monochoria vaginalis [1]) | inhibition at 1200 g/ha (Monochoria vaginalis [2]) | inhibition at 1200 g/ha [3] | inhibition at 1200 g/ha (Scirpus juncoides) | inhibition at 75 g/ha [4] | inhibition at 75 g/ha (Echinochloa crus-galli [5]) | inhibition at 75 g/ha (Digitaria ciliaris [6]) | inhibition at 75 g/ha (Echinochloa crus-galli [7]) | inhibition at 75 g/ha (Digitaria ciliaris [8]) | inhibition at 75 g/ha [9] | inhibition at 1200 g/ha (Echinochloa crus-galli [10])

CC(C)[C@]12C[C@@H](OCc3ccccc3F)[C@](C)(C[C@@H]1F)O2 [1-5, (1R,2S,4S,5R)-2-fluoro-5-((2-fluorobenzyl)oxy)-1-isopropyl-4-methyl-7-oxabicyclo[2.2.1]heptane]
≥ 80%: pest or weed control at 1200 g/ha (Monochoria vaginalis [1]) | inhibition at 1200 g/ha (Monochoria vaginalis [2]) | inhibition at 1200 g/ha [3] | inhibition at 1200 g/ha (Scirpus juncoides) | inhibition at 75 g/ha [4] | inhibition at 75 g/ha (Echinochloa crus-galli [5]) | inhibition at 75 g/ha (Digitaria ciliaris [6]) | inhibition at 75 g/ha (Echinochloa crus-galli [7]) | inhibition at 75 g/ha (Digitaria ciliaris [8]) | inhibition at 75 g/ha [9] | inhibition at 1200 g/ha (Echinochloa crus-galli [10])

CC(C)[C@]12C[C@@H](OCc3c(F)cccc3F)[C@](C)(C[C@@H]1F)O2 [1-7, (1S,2R,4R,5S)-2-((2,6-difluorobenzyl)oxy)-5-fluoro-4-isopropyl-1-methyl-7-oxabicyclo[2.2.1]heptane]
≥ 80%: pest or weed control at 1200 g/ha (Monochoria vaginalis [1]) | inhibition at 1200 g/ha (Monochoria vaginalis [2]) | inhibition at 1200 g/ha [3] | inhibition at 1200 g/ha (Scirpus juncoides) | inhibition at 75 g/ha [4] | inhibition at 75 g/ha (Echinochloa crus-galli [5]) | inhibition at 75 g/ha (Digitaria ciliaris [6]) | inhibition at 75 g/ha (Echinochloa crus-galli [7]) | inhibition at 75 g/ha (Digitaria ciliaris [8]) | inhibition at 75 g/ha [9] | inhibition at 1200 g/ha (Echinochloa crus-galli [10])

CC(C)[C@]12C[C@@H](OCc3ccccc3)[C@](C)(C[C@@H]1Br)O2 [1-15, (1S,2R,4R,5S)-5-bromo-1-methyl-2-phenylmethoxy-4-isopropyl-7-oxabicyclo[2.2.1]heptane]
≥ 80%: pest or weed control at 1200 g/ha (Monochoria vaginalis [1]) | inhibition at 1200 g/ha (Monochoria vaginalis [2]) | inhibition at 1200 g/ha [3] | inhibition at 1200 g/ha (Scirpus juncoides) | inhibition at 75 g/ha [4] | inhibition at 75 g/ha (Echinochloa crus-galli [5]) | inhibition at 75 g/ha (Digitaria ciliaris [6]) | inhibition at 75 g/ha (Echinochloa crus-galli [7]) | inhibition at 75 g/ha (Digitaria ciliaris [8]) | inhibition at 75 g/ha [9] | inhibition at 1200 g/ha (Echinochloa crus-galli [10])

CC(C)[C@]12C[C@@H](OCc3ccccc3F)[C@](C)(C[C@@H]1Br)O2 [1-19, (1S,2R,4R,5S)-5-bromo-2-[(2-fluorophenyl)methoxy]-1-methyl-4-isopropyl-7-oxabicyclo[2.2.1]heptane]
≥ 80%: pest or weed control at 1200 g/ha (Monochoria vaginalis [1]) | inhibition at 1200 g/ha (Monochoria vaginalis [2]) | inhibition at 1200 g/ha [3] | inhibition at 1200 g/ha (Scirpus juncoides) | inhibition at 75 g/ha [4] | inhibition at 75 g/ha (Echinochloa crus-galli [5]) | inhibition at 75 g/ha (Digitaria ciliaris [6]) | inhibition at 75 g/ha (Echinochloa crus-galli [7]) | inhibition at 75 g/ha (Digitaria ciliaris [8]) | inhibition at 75 g/ha [9] | inhibition at 1200 g/ha (Echinochloa crus-galli [10])

CC(C)[C@]12C[C@@H](OCc3ccccc3Cl)[C@](C)(C[C@@H]1Br)O2 [1-20, (1S,2R,4R,5S)-5-bromo-2-[(2-chlorophenyl)methoxy]-1-methyl-4-isopropyl-7-oxabicyclo[2.2.1]heptane]
≥ 80%: pest or weed control at 1200 g/ha (Monochoria vaginalis [1]) | inhibition at 1200 g/ha (Monochoria vaginalis [2]) | inhibition at 1200 g/ha [3] | inhibition at 1200 g/ha (Scirpus juncoides) | inhibition at 75 g/ha [4] | inhibition at 75 g/ha (Echinochloa crus-galli [5]) | inhibition at 75 g/ha (Digitaria ciliaris [6]) | inhibition at 75 g/ha (Echinochloa crus-galli [7]) | inhibition at 75 g/ha (Digitaria ciliaris [8]) | inhibition at 75 g/ha [9] | inhibition at 1200 g/ha (Echinochloa crus-galli [10])

CC(C)[C@]12C[C@@H](OCc3cccs3)[C@](C)(C[C@@H]1Br)O2 [1-721, (1S,2R,4R,5S)-5-bromo-1-methyl-4-isopropyl-2-(thiophen-2-ylmethoxy)-7-oxabicyclo[2.2.1]heptane]
≥ 80%: pest or weed control at 1200 g/ha (Monochoria vaginalis [1]) | inhibition at 1200 g/ha (Monochoria vaginalis [2]) | inhibition at 1200 g/ha [3] | inhibition at 75 g/ha [4] | inhibition at 75 g/ha (Echinochloa crus-galli [5]) | inhibition at 75 g/ha (Digitaria ciliaris [6]) | inhibition at 75 g/ha (Echinochloa crus-galli [7]) | inhibition at 75 g/ha (Digitaria ciliaris [8]) | inhibition at 75 g/ha [9] | inhibition at 1200 g/ha (Echinochloa crus-galli [10])

CC(C)[C@]12C[C@@H](OCc3ccc(F)cc3)[C@](C)(CC1=O)O2 [2-349, (1R,4S,5R)-5-((4-fluorobenzyl)oxy)-1-isopropyl-4-methyl-7-oxabicyclo[2.2.1]heptan-2-one]
≥ 80%: pest or weed control at 1200 g/ha (Monochoria vaginalis [1]) | inhibition at 1200 g/ha (Monochoria vaginalis [2]) | inhibition at 1200 g/ha [3] | inhibition at 75 g/ha [4] | inhibition at 75 g/ha (Echinochloa crus-galli [5]) | inhibition at 75 g/ha (Digitaria ciliaris [6]) | inhibition at 75 g/ha (Echinochloa crus-galli [7]) | inhibition at 75 g/ha (Digitaria ciliaris [8]) | inhibition at 75 g/ha [9] | inhibition at 1200 g/ha (Echinochloa crus-galli [10])
